Data from patent publication US5360613A, “Method of reducing blood levels of total cholesterol and low-density lipoprotein cholesterol” (Iowa State University Research Foundation, Inc., priority 1993, dated 1994).

How the values were obtained:
plasma cholesterol = assay: Lamb feeding study, plasma cholesterol (Example II, Table B); type: in vivo, lambs
Protocol: In view of the encouraging results of Example I, a large mammal study was carried out with lambs. HMB was administered in the form of Ca-HMB.
Cross-bred lambs were obtained from a research flock. Males were selected from a pool of 108 rams while females were selected from a pool of 63 females. Selection was based on weight range, breed and previous performance. Breeding consisted of Dorset, Polypay and Suffold crosses. Males were divided into 5 weight blocks and females into 3 weight blocks. The two heaviest male blocks contained 27 lambs, allotted to 3 pens. All other blocks contained 18 lambs, allotted to 2 pens. Animals were weighed on consecutive days prior to starting the experiment. All animals were shorn 100 days into the experiment. The animals were housed in a single confinement unit with uniform pens. The feeders were concrete bunks with water supplied by several nipple waterers per pen. Dirt flooring was bedded with oat straw when necessary. Weight blocks were placed in adjacent pens with treatment randomly assigned to the blocks. The ration was complete in all nutrients for growing sheep. The diet was formulated to contain protein in excess of the normal requirement in an effort to assure that protein was not a limiting factor for any growth response. The feeding schedule consisted of two feedings per day with the amount controlled so that the animals had eaten all the feed from the previous feeding before being fed again. Also with the feed allotment, a top-dressing of 20 g of either a control premix containing HMB was added at the equivalent of 0.5 gram per animal per day and 1.5 gram per animal per day.
Ca-HMB was prepared by minor modification of the method of Coffman, et al. J. Am. […] Each batch was given a lot number and the purity assessed by high performance liquid chromatography. A single peak was measured when HMB was chromatographed on a C18 column and eluted with 0.01M phosphate buffer, pH 7.0. […]
Blood was collected from each animal. The plasma was analyzed for cholesterol using an Abbott Spectrum Diagnostic system. […] A linear effect of HMB level was evaluated.

aorta = assay: Pig feeding study, aorta streaking (pre-atherosclerotic lesions) (Example III, Table C); type: in vivo, pigs; settings: for Aorta Streaking: 0 least severe to 3.2 most severe, control 1.87
Protocol: (§1) A further large mammal study was carried out with pigs. Pigs comprise test animals which are more similar in certain respects to humans than ruminants.
(§2) Control: 60 g. of calcium
(§3) The pigs were housed in pens of two animals each and were allowed ad libitum access to food and water. Pigs were approximately 160 lbs. at the start of the experiment and were 240 lbs. at the end. All pigs were castrate males. At day 28 and day 43 of the experiment blood was collected from the anterior vena cava by venipuncture. Blood was collected into EDTA containing tubes, centrifuged and frozen until analyzed. At approximately 100 days of the experiment half of the animals (32) were slaughtered, and at 120 days the remaining 32 animals were slaughtered. At the time of slaughter the abdominal aorta was dissected out and external fat removed. The aorta was then split lengthwise and 1/2 fixed in formaldehyde for 48 hours. At this time aortas were removed, stretched over a 6 inch stick, washed in ethanol and stained with a lipid stain for 2 hours. After a 1 hour wash aortas were blotted and examined. All the aortas from a group were laid out on a white bench and arranged in order from least sever to most sever. The least sever had no dark red streaks on the aorta or around the small vertebral vessels leaving the aorta. The most sever lesions had multiple streaks in the middle of the aorta and dark red deposits in turbulent areas such as the branching of vessels from the aorta. The ordered aortas were then assigned a consecutive decimal number. The first (least severe) was assigned 0 and the most severe was assigned 3.2 Plasma cholesterol and triglycerides were measured by an enzyme-colorimetric assay (Sigma).
(§4) statistical analysis was accomplished by the general linear model procedure of the Statistical Analysis System (SAS). The model included the main effects of treatment and pen number. T-tests were conducted from the ANOVA standard error, to compare the HMB treatments to the control. […] It appeared that HMB can partially prevent the formation of pre-atherosclerotic lesions. No effect of KIC was noted relative to any parameter.

[1] = tested on: plasma cholesterol and triglycerides; assay: Pig feeding study, plasma cholesterol and triglycerides (Example III, Table C); type: in vivo, pigs; settings: for Plasma Triglycerides: control 107, ns; for Plasma Cholesterol: control 135
Protocol: as §1, §2, §3, §4

blood cholesterol = assay: Human dose-response study, blood cholesterol, triglycerides and glucose (Example V, Table E); type: in vivo, humans
Protocol: (§5) Higher dose levels than in Example IV of Ca-HMB were tested in humans. The objective was to obtain an indication of whether higher doses could be safely administered, and also whether higher doses might provide a greater reduction in total cholesterol and LDL cholesterol.
(§6) Normal humans were used in the study. Ca-HMB was administered in 250 mg capsules, and the subjects were instructed to take the capsules in 4 equal doses daily. No control of diet was attempted except they were instructed to eat as they normally would. On alternate days the subjects had blood drawn before the morning meal and before they took the morning HMB dose. Four subjects were studied for dose level of 05., 1, 2 and 4 grams per day.
Results from all samples of each subject were subjected to linear regression and the slope and intercept used to calculate the % change in concentration after 8 days on treatment. The percentage changes were then subjected to ANOVA-regression to determine if there was a linear effect of dosage on the parameter. The dose-response effect (p<) is listed in the linear effect column of Table E.

[2] = Human dose-response study, blood HMB (Example V); type: in vivo, humans
Protocol: as §5, §6

[3] = tested on: acetate incorporation into cholesterol by the rat liver; settings: 0.5 g/kg body weight for 2 and 4 days; cited from earlier work
[4] = tested on: acetate incorporation into cholesterol; settings: added to the media at very high concentrations; cited from earlier work
[5] = 4 grams per day, end of the one week study

For `CC(C)(O)CC(=O)O` [HMB, β-hydroxy-β-methylbutyric acid], the Plasma Cholesterol (plasma cholesterol; 0.5 g HMB daily (Ca-HMB), control 54.3, linear effect 0.05) was 51.3, the Plasma Cholesterol (plasma cholesterol; 1.5 g HMB daily (Ca-HMB), control 54.3, linear effect 0.05) was 48.1 and the Plasma Cholesterol (plasma cholesterol; oral consumption, lambs) was “decreased plasma cholesterol”. For the same compound, the “deposits of fat in the aorta” value (aorta; HMB-fed pigs) was “lower deposits of fat in the aorta”, the “Aorta Streaking” value (aorta; dietary .01%, HMB C vs. .01% p .12) was 1.23 and the “Aorta Streaking” value (aorta; dietary .05%, HMB p .06, KIC ns) was 1.18. The “Plasma Triglycerides” value ([1]; dietary .01%) was 105 mg %, the “Plasma Cholesterol” value ([1]; dietary .01%, HMB C vs. .01% p .14) was 120 mg % and the “Plasma Triglycerides” value ([1]; dietary .05%) was 109 mg %. For the same compound, the “Plasma Cholesterol” value ([1]; dietary .05%, HMB p .05, KIC ns) was 118 mg %, the cholesterol (blood cholesterol; 2 grams daily) was “appeared to decrease cholesterol” and the “decrease of LDL cholesterol” value (blood cholesterol; [5]) was “about 6%”. The “decrease of total cholesterol” value (blood cholesterol; [5]) was “about 6%”, the cholesterol (blood cholesterol; doses lower than 2 grams daily) was “no effect was clearly observable” and the blood cholesterol (blood cholesterol; over the course of the week) was “decreased in a dose-responsive manner”. For the same compound, the “Blood HMB” value ([2]; 0.5 to 4 g per day) was “increased in a dose-responsive manner”, the “increase in blood HMB” value ([2]; 4 grams per day) was “very large increase” and the “rate of acetate incorporation into cholesterol by the rat liver” value [3] was “not significantly lowered”. For the same compound, the “inhibition of acetate incorporation” value [4] was “no significant inhibition”.
